Legend:
[1] = Vasodilator activity assessed as ability to relax phenylephrine-induced contraction of Wistar rat aortic strips in presence of 1 uM ODQ
[2] = Vasodilator activity assessed as ability to relax phenylephrine-induced contraction of Wistar rat aortic strips

Structure (SMILES) | EC50 [1] | EC50 [2]
Cc1c(C)c2c(c(C)c1O)CCC(C)(COCCCO[N+](=O)[O-])O2 (centres undefined) [2,5,7,8-Tetramethyl-2-(3-nitrooxy-propoxymethyl)-chroman-6-ol] | 10000 nM | 1200 nM
CC(C)(C)c1cc(CCCO[N+](=O)[O-])cc(C(C)(C)C)c1O [2,6-Di-tert-butyl-4-(3-nitrooxy-propyl)-phenol] | – | 40000 nM
Cc1c(C)c2c(c(C)c1O)CCC(C)(COc1no[n+]([O-])c1S(=O)(=O)c1ccccc1)O2 (centres undefined) [2-(4-Benzenesulfonyl-5-oxy-furazan-3-yloxymethyl)-2,5,7,8-tetramethyl-chroman-6-ol] | 670 nM | 44 nM
COc1cc(CCCO[N+](=O)[O-])cc(OC)c1O [3-(4-hydroxy-3,5-dimethoxyphenyl)propyl nitrate] | – | 4300 nM
CC(C)(C)c1cc(CCCOc2no[n+]([O-])c2S(=O)(=O)c2ccccc2)cc(C(C)(C)C)c1O [4-(3-(3-benzenesulfonylfuroxan-4-yloxy)propyl)-2,6-di-tertbutylphenol] | 4800 nM | 110 nM
COc1cc(CCCOc2no[n+]([O-])c2S(=O)(=O)c2ccccc2)cc(OC)c1O [4-(3-(3-benzenesulfonylfuroxan-4-yloxy)propyl)-2,6-dimethoxyphenol] | 500 nM | 22 nM
O=S(=O)(c1ccccc1)c1c(OCCCc2ccc(O)cc2)no[n+]1[O-] [4-(3-(3-benzenesulfonylfuroxan-4-yloxy)propyl)phenol] | 360 nM | 12 nM
O=[N+]([O-])OCCCc1ccc(O)cc1 [4-(3-Nitrooxy-propyl)-phenol] | – | 1000 nM
CN(CCCc1cc(C(C)(C)C)c(O)c(C(C)(C)C)c1)Cc1no[n+]([O-])c1C(N)=O [4-((N-(3-(3,5-di-tert-butyl-4-hydroxyphenyl)propyl)-N-methylamino)methyl)furoxan-3-carboxamide] | 7400 nM | 410 nM
Cc1c(C)c2c(c(C)c1O)CCC(C)(CN(C)Cc1no[n+]([O-])c1C(N)=O)O2 (centres undefined) [4-((N-((6-hydroxy-2,5,7,8-tetramethylchroman-2-yl)methyl)-N-methylamino)methyl)furoxan-3-carboxamide] | 19000 nM | 1500 nM
CN(C)Cc1no[n+]([O-])c1C(N)=O [4-dimethylaminomethyl-2-oxy-furazan-3-carboxylic acid amide] | – | 3100 nM
NC(=O)c1c(CO)no[n+]1[O-] [4-hydroxymethyl-2-oxy-furazan-3-carboxylic acid amide] | – | 6300 nM

From BindingDB's records for doi:10.1021/jm0510530 (Universit&#224, 2006)
